Laboratory results: patent US20030162837A1, “Carboxyfullerenes and methods of use thereof” (priority 2002, published 2003)
Where “and” joins values, the source holds several entries; their conditions need not be identical. Identical values can stand only once. Entries after “also recorded” stand apart in the source; their conditions may differ.

Experiments:
[1] = system: monkeys; details: mean survival 25 months; cited from earlier work
[2] = treated animals; cited from earlier work
[3] = Superoxide elimination: cytochrome c reduction (hypoxanthine/xanthine oxidase); type: biochemical; details: for IC50: superoxide from hypoxanthine/xanthine oxidase
Experimental: (a) Superoxide was generated by oxidation of hypoxanthine by xanthine oxidase and assayed by reduction of cytochrome c (at absorbance maximum […]).
The ability of C3 to eliminate superoxide radical was assessed using three separate methods. In the first, O2 ? was generated by metabolism of hypoxanthine by xanthine oxidase (reaction 1). O2 ? production was determined by following cytochrome c reduction (absorbance max 550 nm) on a microtiter platereader as described (Quick et al., 2000). Stock solutions of cytochrome c were evaluated on a Beckman DU650 spectrophotometer to verify that that cytochrome c stock was fully oxidized prior to use, and to confirm the concentration of the stock. The reaction was run in the presence of superoxide dismutase (bovine SOD1, Sigma) to determine the non-specific reduction of cytochrome c (i.e. the rate of reaction in the absence of O2 ? ).

[4] = molecular target: T1, xanthine oxidase (Homo sapiens, UniProt P47989); experiment: Xanthine oxidase metabolism of hypoxanthine (purines by HPLC); type: biochemical
T1 sequence (P47989 whole entry, species assumed): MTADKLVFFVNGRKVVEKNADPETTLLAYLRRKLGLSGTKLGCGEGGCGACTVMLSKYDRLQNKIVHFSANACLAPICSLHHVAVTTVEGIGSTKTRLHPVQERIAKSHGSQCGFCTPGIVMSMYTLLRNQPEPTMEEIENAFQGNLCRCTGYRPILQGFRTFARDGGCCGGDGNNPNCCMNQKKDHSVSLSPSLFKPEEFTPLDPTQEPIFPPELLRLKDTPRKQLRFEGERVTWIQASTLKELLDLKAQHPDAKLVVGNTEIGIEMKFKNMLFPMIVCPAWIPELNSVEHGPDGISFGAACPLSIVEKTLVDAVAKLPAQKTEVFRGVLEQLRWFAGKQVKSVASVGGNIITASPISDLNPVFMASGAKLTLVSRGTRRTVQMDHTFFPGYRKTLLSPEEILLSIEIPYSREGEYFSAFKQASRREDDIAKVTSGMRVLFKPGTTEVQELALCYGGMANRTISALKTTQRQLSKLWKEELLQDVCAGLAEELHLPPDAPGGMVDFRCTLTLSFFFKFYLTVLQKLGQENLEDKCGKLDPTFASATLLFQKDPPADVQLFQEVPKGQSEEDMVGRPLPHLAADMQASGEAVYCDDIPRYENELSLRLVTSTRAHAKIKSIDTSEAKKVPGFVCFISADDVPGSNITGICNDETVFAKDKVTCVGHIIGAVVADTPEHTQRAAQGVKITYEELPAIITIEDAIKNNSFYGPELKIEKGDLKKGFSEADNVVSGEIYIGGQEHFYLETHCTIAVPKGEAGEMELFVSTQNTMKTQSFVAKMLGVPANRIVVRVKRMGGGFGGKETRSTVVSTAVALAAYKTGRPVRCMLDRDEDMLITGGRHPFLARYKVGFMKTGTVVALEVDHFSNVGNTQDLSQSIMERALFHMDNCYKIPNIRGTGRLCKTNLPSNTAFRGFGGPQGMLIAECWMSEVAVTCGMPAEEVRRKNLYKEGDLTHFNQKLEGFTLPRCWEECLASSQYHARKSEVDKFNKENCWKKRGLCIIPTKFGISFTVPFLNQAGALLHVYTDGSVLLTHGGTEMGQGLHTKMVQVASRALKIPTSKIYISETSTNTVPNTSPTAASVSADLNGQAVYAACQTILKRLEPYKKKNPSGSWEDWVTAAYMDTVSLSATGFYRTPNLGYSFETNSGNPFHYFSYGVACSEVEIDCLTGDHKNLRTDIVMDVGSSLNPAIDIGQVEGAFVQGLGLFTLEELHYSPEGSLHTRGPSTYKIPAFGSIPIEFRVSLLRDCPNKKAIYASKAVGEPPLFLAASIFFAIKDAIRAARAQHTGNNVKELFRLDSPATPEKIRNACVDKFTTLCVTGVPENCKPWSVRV
Experimental: Hypoxanthine and its metabolites xanthine and uric acid were analyzed by HPLC at specific times during the xanthine oxidase: hypoxanthine reaction. The reaction was allowed to run for 40 or 100 minutes and was stopped by the addition of trifloroacetic acid (0.1% TFA) to denature xanthine oxidase. Samples were injected onto the HPLC and separated on a C18 column.

[5] = system: Fisher 344 rats; details: cited from earlier work
[6] = system: Fisher 344 rats; details: same dose; cited from earlier work
[7] = system: rats; details: rats treated from age 96 weeks through end of life; control 147+/−1; cited from earlier work
[8] = system: Drosophila; details: cited from earlier work
[9] = system: C57B6 mice; details: chronic treatment starting at 18 months of age; cited from earlier work
[10] = Oxygen consumption studies with H2O2 (re-evolution of oxygen); type: biochemical
[11] = Characterization of C3 after exposure to superoxide (HPLC, mass spectrometry); type: physicochemical
Source text: Samples were then immediately injected onto the HPLC.
To maximize the amount of modified C3 present should structural changes occur, hexacarboxylic acid C3 and its decarboxylation products were exposed to superoxide generated by the xanthine oxidase reaction for four consecutive reactions by re-addition of the substrate, hypoxanthine. […] Compounds were extracted from the reaction mixture, and re-injected onto the HPLC. […] Peaks were collected and evaluated by mass spectrometry, but no changes in the molecular ions were observed.

[12] = system: C57B6NIH male and female mice; experiment: Longevity trial with mice (Kaplan-Meier survival, weights); type: in vivo
Experimental: FIG. 4 illustrates the survival curve for mice treated by the process of the instant invention vs. control. […]. The date of spontaneous death for each mouse was recorded, and used to calculate the lifespan. Lifespan of each mouse was calculated in months because mice received from the NIA rodent colony have their birth month, but not their specific birth date, recorded. Average survival was calculated for each treatment and the mean lifespans were compared using a t-test with significance set to p<0.05 (actual p=0.033). The lifespan of control mice was 23.5±5.5 months (mean±SD, n=8) and of C3-treated mice was 28.7±3.4 (mean±SD, n=9). This calculation includes one C3-treated mouse which is still alive as of Feb. 21, 2002, and whose lifespan was included as of this date. Continued survival by this mouse will further increase the average difference in lifespan, and will decrease the p value (increase the significance). […].
Twelve month old C57B6NIH male and female mice (equal numbers) were purchased from the National Institute on Aging (NIA) Aging Rodent Colony. Mice shipped from this colony were not selected in any way for health, tumors or other disabilities, and all mice obtained from the colony were subsequently enrolled in the study. Mice were randomly placed in same-sex numbered cages, two per cage, ear-punched for identification, and weighed. Mice were then trained on a rotorod twice per week for three sessions, and were then tested on the rotorod in three sessions to measure motor performance at baseline. Cages were then assigned to receive either treatment A or treatment B by an observer who was blind to what these treatments would be.
Solution A or solution B was placed in the water bottles, and solutions were topped-off twice weekly, and filtered to remove any particulates biweekly by an individual blind to the identity of the solutions. At 19 months of age, mice were weighed again, and underwent another round of rotorod training and testing. Mice were allowed to die spontaneously, and their date of death were recorded by the Animal Housing Facility staff as part of the normal operating procedure of the facility. […] When animals died, the cage number, identity of the animal, and the date of death were recorded on the death notice, which was then sent to the laboratory, where the information was entered into the database.
In addition, because longevity was increased by the oral dosing of a drug, it is the first practical method for achieving increased longevity in metazoans.

[13] = Characterization of C3 after exposure to H2O2 (HPLC, spectroscopy); type: physicochemical; details: H2O2 20-200 mM; HPLC and spectroscopy
[14] = Pharmacokinetics study in mice; type: in vivo
Source text: […]. […] […].

[15] = molecular target: T1, xanthine oxidase; experiment: O2 consumption during the xanthine oxidase reaction (Clark-type O2 electrode); type: biochemical; details: in the presence of C3 compared with SOD
Experimental: O2 consumption during the xanthine oxidase reaction was determined using an oxymetry chamber equipped with a Clark-type O2 electrode (Hansatech, UK).

[16] = Inhibition of pyrogallol autoxidation to purpurogallin; type: biochemical
Experimental: Pyrogallol autooxidation to purpurogallin was assayed as described. Briefly, Tris-cacodylic acid buffer (55.6 mM) buffer, pH 8.2, was prepared with 1 mM diethyltriaminopentaacetic acid (DTPA) (TCB solution). The pyrogallol solution contained 10 mM pyrogallol in 10 mM HCl. To 0.9 ml of TCB, 0.1 ml of pyrogallol solution was added, rapidly vortexed, and placed in the cuvette. The increase in absorbance at 420 nm was followed for 60 sec in a Beckman DU 650 spectrophotometer at room temperature. The rate of pyrogallol autoxidation in the presence of SOD (100 U/ml) was subtracted from that of the control reaction without SOD to determine the rate that was specifically due to reaction with O2 ? .

## O=CC[C@@H](O)[C@H](O)[C@H](O)CO [2-deoxyglucose]
[1]
  lifespan of one treated monkey: 38 months
[2]
  body temperature: lowered
  plasma insulin levels: decreased

## O=C(O)c1ccc(/C2=C3\C=CC(=N3)/C(c3ccc(C(=O)O)cc3)=c3/cc/c4[n]3[Mn]([Cl])[n]3c2ccc3/C(c2ccc(C(=O)O)cc2)=C2/C=CC(=N2)\C=4c2ccc(C(=O)O)cc2)cc1 [MnTBAP, reference compound]
[3]
  IC50: 50 µM

## O=c1[nH]c(=O)c2c[nH]nc2[nH]1 [Oxypurinol, reference compound]
[4]; concentrations similar to those previously reported (data not shown)
  inhibition of purine metabolism: completely inhibit

## C#CCN(C)[C@H](C)Cc1ccccc1 [deprenyl]
[5]; not statistically significant
  increase in longevity: 7%
[5]; treatment from 18 months of age, controls 28
  mean survival: 30 months
[6]
  effect on mortality and lifespan: greater mortality and shortened lifespan
[7]
  lifespan: 198+/−2 weeks
[8]
  effect on lifespan: did not show an increase in lifespan
[9]
  survival benefit: failed to show any survival benefit

## SOD: superoxide dismutase (bovine SOD1, Sigma) [reference compound]
[3]; reaction with superoxide, cytochrome c reduction
  Reaction rate (k): 2e+09 M⁻¹ s⁻¹
[3]
  IC50: 0.5 µM

## catalase [reference compound]
[10]
  re-evolution of oxygen from H2O2: rapid re-evolution of oxygen

## e,e,e C60[C(COOH)2]3 [C3]
[3]; 500 μM
  concentration of superoxide in the reaction: zero
[3]
  IC50: 330 µM
[11]
  structural change after exposure to superoxide: No change in the size or distribution of peaks; also recorded: no permanent chemical or structural changes
[12]; C3-treated mice
  effect on weight: not accompanied by a reduction in weight
[12]; C57B6 mice, C3 0.5 mg/kg/day in drinking water from age 12 months through end of life, n=9, control 23.5±5.5, 0.5 mg/kg/day
  lifespan (mean±SD): 28.7±3.4 months and 28.7 months
[12]; females, control 27±1
  weight at 19 months, females: 29+1 grams
[12]; males, control 35±4
  weight at 19 months, males: 35±6 grams
[13]
  structural change after exposure to H2O2: No change; also recorded: no change in the size or distribution of peaks; also recorded: no permanent chemical or structural changes
[14]; mice
  plasma half-life: 8 h
  route of clearance: excretion through both the liver and kidney
[14]; oral (e.g. drinking water) relative to intravenous, intraperitoneal or subcutaneous
  fraction of dose absorbed when given orally: 1/15
[15]
  oxygen utilization by xanthine oxidase: similar
[10]
  re-evolution of oxygen from H2O2: significantly slower than that seen with catalase
[4]; 300 μM
  inhibition of xanthine oxidase metabolism of hypoxanthine: < 10%
[4]; 500 μM
  inhibition of xanthine oxidase metabolism of hypoxanthine: 15%
[16]
  IC50: 360 µM
